According to the NIST ThermoML archive (doi:10.1016/j.jct.2014.03.001):
Numbers after ± are expanded uncertainties.

Test: mn = molality of the nth substance listed, in mol/kg
Conditions: 84.51 kPa, Liquid; for speed of sound: Frequency=3 MHz, Sing-around technique in a fixed-path interferometer; for mass density: Vibrating tube method

CCCCCCCCCCCCn1cc[n+](C)c1.[Br-] [1-dodecyl-3-methylimidazolium bromide] + O
Conditions	mass density [kg/m3]	speed of sound [m/s]
288.15 K, m1 = 0.00233	999.188 ± 0.11	1467.3 ± 1.2
288.15 K, m1 = 0.00278	999.209 ± 0.11	1467.4 ± 1.2
288.15 K, m1 = 0.00301	999.216 ± 0.11	1467.5 ± 1.2
288.15 K, m1 = 0.00467	999.282 ± 0.11	1467.7 ± 1.2
288.15 K, m1 = 0.00501	999.296 ± 0.11	1467.9 ± 1.2
288.15 K, m1 = 0.00665	999.36 ± 0.11	1468.4 ± 1.2
288.15 K, m1 = 0.00889	999.451 ± 0.11	1469 ± 1.2
288.15 K, m1 = 0.00906	999.458 ± 0.11	1469 ± 1.2
288.15 K, m1 = 0.01229	999.569 ± 0.11	1469.4 ± 1.2
288.15 K, m1 = 0.01511	999.659 ± 0.11	1469.4 ± 1.2
288.15 K, m1 = 0.01804	999.736 ± 0.11	1469.5 ± 1.2
288.15 K, m1 = 0.02431	999.927 ± 0.11	1469.6 ± 1.2
288.15 K, m1 = 0.03042	1000.12 ± 0.11	1469.7 ± 1.2
288.15 K, m1 = 0.04595	1000.6 ± 0.11	1470 ± 1.2
288.15 K, m1 = 0.06124	1001.06 ± 0.11	1470.2 ± 1.2
288.15 K, m1 = 0.07667	1001.51 ± 0.11	1470.5 ± 1.2
288.15 K, m1 = 0.098	1002.15 ± 0.11	1471 ± 1.2
288.15 K, m1 = 0.1095	1002.5 ± 0.11	1471.1 ± 1.2
293.15 K, m1 = 0.00233	998.288 ± 0.11	1483.3 ± 1.2
293.15 K, m1 = 0.00278	998.306 ± 0.11	1483.3 ± 1.2
293.15 K, m1 = 0.00301	998.314 ± 0.11	1483.4 ± 1.2
293.15 K, m1 = 0.00467	998.376 ± 0.11	1483.7 ± 1.2
293.15 K, m1 = 0.00501	998.39 ± 0.11	1483.9 ± 1.2
293.15 K, m1 = 0.00665	998.451 ± 0.11	1484.2 ± 1.2
293.15 K, m1 = 0.00889	998.538 ± 0.12	1484.8 ± 1.3
293.15 K, m1 = 0.00906	998.544 ± 0.12	1484.8 ± 1.3
293.15 K, m1 = 0.01229	998.652 ± 0.11	1485.1 ± 1.2
293.15 K, m1 = 0.01511	998.738 ± 0.11	1485.1 ± 1.2
293.15 K, m1 = 0.01804	998.815 ± 0.11	1485.2 ± 1.2
293.15 K, m1 = 0.02431	998.999 ± 0.11	1485.2 ± 1.2
293.15 K, m1 = 0.03042	999.185 ± 0.11	1485.3 ± 1.2
293.15 K, m1 = 0.04595	999.641 ± 0.11	1485.4 ± 1.2
293.15 K, m1 = 0.06124	1000.09 ± 0.11	1485.5 ± 1.2
293.15 K, m1 = 0.07667	1000.53 ± 0.11	1485.7 ± 1.2
293.15 K, m1 = 0.098	1001.14 ± 0.11	1486 ± 1.2
293.15 K, m1 = 0.1095	1001.48 ± 0.11	1486.1 ± 1.2
298.15 K, m1 = 0.00233	997.123 ± 0.11	1497.4 ± 1.2
298.15 K, m1 = 0.00278	997.142 ± 0.11	1497.4 ± 1.2
298.15 K, m1 = 0.00301	997.148 ± 0.11	1497.6 ± 1.2
298.15 K, m1 = 0.00467	997.208 ± 0.11	1497.8 ± 1.2
298.15 K, m1 = 0.00501	997.221 ± 0.11	1497.9 ± 1.2
298.15 K, m1 = 0.00665	997.28 ± 0.11	1498.2 ± 1.2
298.15 K, m1 = 0.00889	997.362 ± 0.12	1498.8 ± 1.3
298.15 K, m1 = 0.00906	997.366 ± 0.12	1498.8 ± 1.3
298.15 K, m1 = 0.01229	997.472 ± 0.11	1499.1 ± 1.2
298.15 K, m1 = 0.01511	997.555 ± 0.11	1499.1 ± 1.2
298.15 K, m1 = 0.01804	997.629 ± 0.11	1499.1 ± 1.2
298.15 K, m1 = 0.02431	997.806 ± 0.11	1499.1 ± 1.2
298.15 K, m1 = 0.03042	997.989 ± 0.11	1499.1 ± 1.2
298.15 K, m1 = 0.04595	998.429 ± 0.11	1499.1 ± 1.2
298.15 K, m1 = 0.06124	998.861 ± 0.11	1499 ± 1.2
298.15 K, m1 = 0.07667	999.288 ± 0.11	1499.1 ± 1.2
298.15 K, m1 = 0.098	999.878 ± 0.11	1499.2 ± 1.2
298.15 K, m1 = 0.1095	1000.21 ± 0.11	1499.2 ± 1.2
303.15 K, m1 = 0.00233	995.721 ± 0.11	1509.7 ± 1.2
303.15 K, m1 = 0.00278	995.74 ± 0.11	1509.7 ± 1.2
303.15 K, m1 = 0.00301	995.746 ± 0.11	1509.8 ± 1.2
303.15 K, m1 = 0.00467	995.801 ± 0.11	1510 ± 1.2
303.15 K, m1 = 0.00501	995.814 ± 0.11	1510 ± 1.2
303.15 K, m1 = 0.00665	995.873 ± 0.11	1510.4 ± 1.2
303.15 K, m1 = 0.00889	995.95 ± 0.12	1511 ± 1.3
303.15 K, m1 = 0.00906	995.955 ± 0.11	1511 ± 1.3
303.15 K, m1 = 0.01229	996.058 ± 0.11	1511.2 ± 1.2
303.15 K, m1 = 0.01511	996.137 ± 0.11	1511.2 ± 1.2
303.15 K, m1 = 0.01804	996.207 ± 0.11	1511.2 ± 1.2
303.15 K, m1 = 0.02431	996.381 ± 0.11	1511.1 ± 1.2
303.15 K, m1 = 0.03042	996.556 ± 0.11	1511 ± 1.2
303.15 K, m1 = 0.04595	996.985 ± 0.11	1510.9 ± 1.2
303.15 K, m1 = 0.06124	997.402 ± 0.11	1510.8 ± 1.2
303.15 K, m1 = 0.07667	997.814 ± 0.11	1510.7 ± 1.2
303.15 K, m1 = 0.098	998.386 ± 0.11	1510.5 ± 1.2
303.15 K, m1 = 0.1095	998.705 ± 0.11	1510.5 ± 1.2
308.15 K, m1 = 0.00233	994.1 ± 0.11	1520.3 ± 1.2
308.15 K, m1 = 0.00278	994.121 ± 0.11	1520.2 ± 1.2
308.15 K, m1 = 0.00301	994.125 ± 0.11	1520.4 ± 1.2
308.15 K, m1 = 0.00467	994.18 ± 0.11	1520.6 ± 1.2
308.15 K, m1 = 0.00501	994.193 ± 0.11	1520.6 ± 1.2
308.15 K, m1 = 0.00665	994.246 ± 0.11	1520.9 ± 1.2
308.15 K, m1 = 0.00889	994.32 ± 0.12	1521.4 ± 1.3
308.15 K, m1 = 0.00906	994.325 ± 0.11	1521.4 ± 1.3
308.15 K, m1 = 0.01229	994.423 ± 0.11	1521.7 ± 1.2
308.15 K, m1 = 0.01511	994.502 ± 0.11	1521.6 ± 1.2
308.15 K, m1 = 0.01804	994.571 ± 0.11	1521.6 ± 1.2
308.15 K, m1 = 0.02431	994.739 ± 0.11	1521.5 ± 1.2
308.15 K, m1 = 0.03042	994.91 ± 0.11	1521.4 ± 1.2
308.15 K, m1 = 0.04595	995.323 ± 0.11	1521.1 ± 1.2
308.15 K, m1 = 0.06124	995.729 ± 0.11	1520.8 ± 1.2
308.15 K, m1 = 0.07667	996.129 ± 0.11	1520.7 ± 1.2
308.15 K, m1 = 0.098	996.685 ± 0.11	1520.3 ± 1.2
308.15 K, m1 = 0.1095	996.993 ± 0.11	1520.1 ± 1.2
313.15 K, m1 = 0.00233	992.28 ± 0.11	1529.3 ± 1.2
313.15 K, m1 = 0.00278	992.299 ± 0.11	1529.3 ± 1.2
313.15 K, m1 = 0.00301	992.305 ± 0.11	1529.4 ± 1.2
313.15 K, m1 = 0.00467	992.357 ± 0.11	1529.6 ± 1.2
313.15 K, m1 = 0.00501	992.368 ± 0.11	1529.6 ± 1.2
313.15 K, m1 = 0.00665	992.422 ± 0.11	1529.8 ± 1.2
313.15 K, m1 = 0.00889	992.489 ± 0.11	1530.3 ± 1.2
313.15 K, m1 = 0.00906	992.495 ± 0.11	1530.3 ± 1.2
313.15 K, m1 = 0.01229	992.591 ± 0.11	1530.6 ± 1.2
313.15 K, m1 = 0.01511	992.671 ± 0.11	1530.5 ± 1.2
313.15 K, m1 = 0.01804	992.736 ± 0.11	1530.5 ± 1.2
313.15 K, m1 = 0.02431	992.896 ± 0.11	1530.3 ± 1.2
313.15 K, m1 = 0.03042	993.064 ± 0.11	1530.1 ± 1.2
313.15 K, m1 = 0.04595	993.467 ± 0.11	1529.7 ± 1.2
313.15 K, m1 = 0.06124	993.86 ± 0.11	1529.3 ± 1.2
313.15 K, m1 = 0.07667	994.248 ± 0.11	1529 ± 1.2
313.15 K, m1 = 0.098	994.79 ± 0.11	1528.5 ± 1.2
313.15 K, m1 = 0.1095	995.087 ± 0.11	1528.2 ± 1.2
